Source: article PMC11249637, “Interaction of the Atypical Tetracyclines Chelocardin and Amidochelocardin with Renal Drug Transporters” (ACS Pharmacology & Translational Science, 2024)

Key:
mOat3 = biological target: T1, mOat3 (Mus musculus, UniProt O88909); experiment: Three-point uptake (substrate assessment) in mOat3-overexpressing HEK293 cells; type: in vitro ADME
T1 construct: expressed in transfected cells; host or cells: HEK293
T1 sequence (O88909 1-537): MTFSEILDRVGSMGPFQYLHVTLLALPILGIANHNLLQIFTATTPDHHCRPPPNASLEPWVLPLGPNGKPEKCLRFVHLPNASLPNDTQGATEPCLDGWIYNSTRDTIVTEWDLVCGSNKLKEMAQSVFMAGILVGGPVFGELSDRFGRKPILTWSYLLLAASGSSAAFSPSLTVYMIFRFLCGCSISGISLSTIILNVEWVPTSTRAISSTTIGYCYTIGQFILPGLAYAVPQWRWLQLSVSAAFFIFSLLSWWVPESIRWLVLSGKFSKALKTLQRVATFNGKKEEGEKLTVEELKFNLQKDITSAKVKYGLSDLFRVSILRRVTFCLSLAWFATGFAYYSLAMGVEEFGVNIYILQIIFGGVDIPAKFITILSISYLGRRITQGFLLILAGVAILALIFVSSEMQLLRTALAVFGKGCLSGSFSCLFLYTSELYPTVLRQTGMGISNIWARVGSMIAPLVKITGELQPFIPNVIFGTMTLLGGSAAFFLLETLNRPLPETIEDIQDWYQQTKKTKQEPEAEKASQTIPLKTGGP
Experimental: (§1) This is important to gain a better understanding of the underlying mechanisms of secretion into urine. Therefore, we assessed the amount of compound taken up by the vector and transporter cells at three different concentrations (1, 10, and 100 μM for mOat1 and mOct1; 0.1, 1, and 10 μM for mOat3) and at two different incubation periods (1 and 5 min for mOat1 and mOct1; 5 and 10 min for mOat3).
The incubation buffer contained CHD and CDCHD in a final concentration of 0.1, 1, and 10 μM. After 5 and 10 min, the incubation was terminated. In addition, the probe inhibitor probenecid (100 μM) was added in one concentration to 10 μM CHD and CDCHD, respectively, and after 5 and 10 min, the incubation was stopped. Inhibition of mOat3-mediated ^3H-ES (1 μM) uptake by 100 μM probenecid was performed as a control experiment. After 1 min, the incubation was terminated. All experiments were conducted in triplicate.
First, a calibration curve was prepared by spiking different concentrations of CHD and CDCHD into the cell matrix. Caffeine was used as an internal standard. In addition, quality control samples (QCs) were prepared for CHD and CDCHD in a cell matrix. The following extraction procedures were used: 300 μL of acetonitrile/water (1:1) is added to the cell pellet (sample or calibration/QC sample) for 15 min at 2000 rpm on an Eppendorf MixMate vortex mixer. 10 μL of this extracted sample is used for further analysis. 10 μL of the extracted cell sample is further extracted with 25 μL of a mixture of methanol/acetonitrile (2:1) containing 12.5 ng/mL caffeine as an internal standard (on ice) for 5 min at 2000 rpm on an Eppendorf MixMate vortex mixer. […] Samples were analyzed using an Agilent 1290 Infinity II HPLC system coupled to an AB Sciex QTrap6500plus mass spectrometer. […]
For statistical testing of differences in uptake ratio or for the inhibitory effect, an ordinary one-way ANOVA test was performed using GraphPad Prism 9.5.1 software. […] Michaelis–Menten kinetics were determined using the Michaelis–Menten algorithm of GraphPad Prism 9.5.1 software. […]

mOct1 = biological target: T2, mOct1 (Mus musculus, UniProt O08966); experiment: Three-point uptake (substrate assessment) in mOct1-overexpressing HEK293 cells; type: in vitro ADME
T2 construct: expressed in transfected cells; host or cells: HEK293
T2 sequence (O08966 1-556): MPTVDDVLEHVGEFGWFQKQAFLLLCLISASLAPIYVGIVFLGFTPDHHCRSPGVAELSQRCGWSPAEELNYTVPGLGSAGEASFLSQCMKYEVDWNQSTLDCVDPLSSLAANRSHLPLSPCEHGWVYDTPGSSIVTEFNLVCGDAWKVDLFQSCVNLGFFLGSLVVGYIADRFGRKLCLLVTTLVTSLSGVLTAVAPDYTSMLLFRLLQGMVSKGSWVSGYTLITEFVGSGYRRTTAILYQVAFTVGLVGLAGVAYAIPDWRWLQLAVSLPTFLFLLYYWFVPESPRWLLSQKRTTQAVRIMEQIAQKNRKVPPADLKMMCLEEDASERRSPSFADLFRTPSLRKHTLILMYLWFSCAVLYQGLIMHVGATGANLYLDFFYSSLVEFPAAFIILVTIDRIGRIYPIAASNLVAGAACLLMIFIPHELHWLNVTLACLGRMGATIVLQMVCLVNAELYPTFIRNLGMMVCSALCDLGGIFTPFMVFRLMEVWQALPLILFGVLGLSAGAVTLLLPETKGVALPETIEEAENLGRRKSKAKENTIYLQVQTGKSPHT
Experimental: as §1
The incubation buffer contained CHD and CDCHD in a final concentration of 1, 10, and 100 μM. After 1 and 5 min, the incubation was terminated. In addition, the probe inhibitor decynium22 (50 μM) was added in one concentration to 10 μM CHD and CDCHD, respectively, and after 1 and 5 min, the incubation was stopped. Inhibition of mOct1-mediated ^3H-MPP (10 μM) uptake by 50 μM decynium22 was performed as a control experiment. After 1 min, the incubation was terminated. All experiments were conducted in triplicate.
First, a calibration curve was prepared by spiking different concentrations of CHD and CDCHD into the cell matrix. Caffeine was used as an internal standard. In addition, quality control samples (QCs) were prepared for CHD and CDCHD in a cell matrix. The following extraction procedures were used: 300 μL of acetonitrile/water (1:1) is added to the cell pellet (sample or calibration/QC sample) for 15 min at 2000 rpm on an Eppendorf MixMate vortex mixer. 10 μL of this extracted sample is used for further analysis. 10 μL of the extracted cell sample is further extracted with 25 μL of a mixture of methanol/acetonitrile (2:1) containing 12.5 ng/mL caffeine as an internal standard (on ice) for 5 min at 2000 rpm on an Eppendorf MixMate vortex mixer. Then, samples were spun down at 15,870 × g for 10 min. Supernatants were transferred to standard HPLC glass vials. Samples were analyzed using an Agilent 1290 Infinity II HPLC system coupled to an AB Sciex QTrap6500plus mass spectrometer. LC conditions were as follows: column: Agilent Zorbax Eclipse Plus C18, 50 × 2.1 mm, 1.8 μm; temperature: 30°C; injection volume: 5 μL per sample; flow rate: 700 μL/min. Samples were run under the following conditions. Solvents: A: 100% water +0.1% formic acid; solvent B: 100% acetonitrile +0.1% formic acid. The gradient for CDCHD was as follows: 99% A at 0 min, 99% A until 0.1 min, 99–90% A from 0.1 to 1.0 min, 90–50% A from 1.0 to 2.4 min, 50–35% A from 2.4 to 2.7 min, 35–0% A from 2.7 until 4.5 min, 0% A until 5.5 min, 0–99% from 5.5 to 5.7 min, 99% A until 6.0 min. The gradient for CHD was as follows: 99% A at 0 min, 99% A until 0.1 min, 99–90% A from 0.1 to 1.0 min, 90–55% A from 1.0 to 2.3 min, 55–40% A from 2.3 to 2.5 min, 40–0% A from 2.5 until 4.5 min, 0% A until 5.5 min, 0–99% from 5.5 to 5.7 min, 99% A until 6.0 min. Mass transitions are depicted in Table S2.
For statistical testing of differences in uptake ratio or for the inhibitory effect, an ordinary one-way ANOVA test was performed using GraphPad Prism 9.5.1 software. For statistical testing of difference in uptake on vector- or transporter-overexpressing cells, an ordinary two-way ANOVA test was performed using GraphPad Prism 9.5.1 software. Michaelis–Menten kinetics were determined using the Michaelis–Menten algorithm of GraphPad Prism 9.5.1 software. Image resolution was adjusted by using GIMP software.

Structure (SMILES)	substrate of mOat3 (in words) (mOat3)	Km (mOat3; Michaelis–Menten fit, 0.1, 1 and 10 μM) [µM]	substrate of mOct1 (in words) (mOct1)	less uptake in the presence of the specific inhibitor decynium22, mOct1 (mOct1; 10 μM compound, 50 μM decynium22, 5 min)	uptake ratio (cells without vs with decynium22), mOct1 (mOct1; 10 μM compound, 50 μM decynium22, 1 and 5 min)	mOct1: Vmax (mOct1; Michaelis–Menten fit, 1, 10 and 100 μM) [nM/min]
CC(=O)C1=C(O)[C@@H](N)[C@H]2Cc3c(c(O)c4c(O)c(C)ccc4c3C)C(=O)[C@@]2(O)C1=O [CHD, chelocardin]	is a substrate	6.1	is a substrate	around 50%		
Cc1ccc2c(C)c3c(c(O)c2c1O)C(=O)[C@@]1(O)C(=O)C(C(N)=O)=C(O)[C@@H](N)[C@H]1C3 [CDCHD, amidochelocardin]	is not a substrate		is not a substrate		1	15.0
